Measurements as given in patent US20240050408A1, “USE OF MGLUR5 ANTAGONISTS FOR TREATING AMPHETAMINE ADDICTION” (NOVARTIS AG, priority 2020, published 2024).

Experiments:
Type in all cases: in vivo, human
[1] = tested on: patients with Cocaine Use Disorder (CUD); experiment: Phase 2 trial: Clinical Global Impression (CGI) improvement; settings: P<0.001
Description: (§1) This study was conducted in patients with CUD and consisted of about a 21-day screening period followed by a 7-day baseline period, a 98-day outpatient treatment period, and an end of study visit evaluation about 14 days after the last study drug administration ([…]. A). Study treatment was taken twice daily (separated by about 12-hour intervals) with food. For patients in the mavoglurant arm [mavoglurant (free form) provided as modified release formulation (e.g. in WO2014/199316)], an uptitration regimen was performed for 14 days (50 mg b.i.d. from Days 1 to 7 and 100 mg b.i.d from Days 8 to 14) and was followed by 200 mg b.i.d for 84 days.
The primary endpoint was the proportion of cocaine use days during the treatment period, assessed by timeline followback [TLFB] cocaine self-report report. The secondary endpoints included a weekly urine analysis for a log-transformed quantitative measure of cocaine metabolite benzoylecgonine (BE), safety assessments (clinical parameters, suicidal ideation, adverse events [AE] and serious adverse events [SAE] at every visit), and pre- and post-dose levels of mavoglurant in the plasma. Exploratory endpoints included Clinical Global Impression (CGI; 2 components: CGI-S [rated illness severity], CGI-I [rated change from baseline]).
Observer Reported Outcome: • 1. […]

[2] = tested on: patients with Cocaine Use Disorder (CUD); experiment: Phase 2 trial: hair analysis; settings: end of study vs baseline; compared to placebo
Description: Hair analysis was used as an adjunct to urine samples collection and helps document drug use history. Hair specimens were collected and at baseline and at the end of the study. Patients with hair shorter than 3 cm or bleached and/or dyed hair (proximal 4 cm) were excluded from this assessment. If only the tip of long hairs were bleached, samples were collected.
The quantitative measures were log-transformed and individual ratio between end of study and baseline was calculated and listed by treatment, subject and visit/time. The log-transformed data profiles over time were explored, compared between treatment groups and the relationship between cocaine and alcohol measures in hair, in urine and timeline follow-back was assessed.
Summary statistics were provided by treatment and visit/time. Heatmaps to visualize the trend in the log-transformed quantitative measures were created. To explore the relationship between the log-transformed quantitative measures of the compounds being assayed and the timeline follow-back cocaine and alcohol measures, scatterplots were created for the end of study results. […]
To ensure that the hair analysis quantitative parameters only had numerical values, censored values were imputed as follows • Values below the LLOQ were replaced by LLOQ/2. • Values above the ULOQ were replaced by ULOQ.

[3] = tested on: patients with Cocaine Use Disorder (CUD); experiment: Phase 2 trial: alcohol consumption by TLFB; settings: difference vs placebo not statistically significant (P=0.072)
Description: as §1
Alcohol consumption was recorded by the subjects using TLFB. The number of drinks was recorded daily. […] The past consumption of alcohol was the proportion of alcohol over the 28 days preceding the screening visit, which was assessed retrospectively using the TLFB. […]
Patient Reported Outcome included: • 1. The TLFB cocaine: is a cocaine assessment method that obtains estimates of daily cocaine intake and has been evaluated with clinical and nonclinical populations. […] The TLFB alcohol: is a drinking assessment method that obtains estimates of daily drinking and has been evaluated with clinical and nonclinical populations. […]

[4] = tested on: patients with Cocaine Use Disorder (CUD); experiment: Phase 2 trial: abstinence in the last weeks of treatment (TLFB and negative urine BE); settings: self-report (TLFB) and negative urine BE; placebo 16.7%; P=0.040
Description: as §1
A subject was considered abstinent the last x weeks of treatment if they completed the 14-week treatment period and were abstinent the last x weeks (with x=1, 2, 3. . . . , 14).
A subject was considered abstinent the last x weeks of treatment if they completed the 14-week treatment period and were abstinent the last x weeks (with x=1, 2, 3. . . . , 14). […] Binary response variables based on abstinence were calculated.
This analysis was added in order to inform on abstinence rates as this is an important endpoint in Phase III CUD studies. Binary response variables based on abstinence were calculated.

COC(=O)N1CC[C@@H]2[C@H]1CCC[C@@]2(O)C#Cc1cccc(C)c1 [mavoglurant, (-)-(3aR,4S,7aR)-4-Hydroxy-4-m-tolylethynyl-octahydro-indole-1-carboxylic acid methyl ester]
clinical improvement by CGI vs placebo (result in words) ([1]; CGI-I improvement from baseline): significantly enhanced clinical improvement
CGI 'very much' and 'much' improved, patients ([1]; Day 98, placebo 46.6%): 90.9%
hair analysis: cocaine and metabolite, change from baseline [2]: higher reductions from baseline as compared to placebo
alcohol consumption by TLFB [3]: reduced alcohol consumption
proportion of patients with cocaine abstinence in the last 3 weeks of the study [4]: 41.4%
